Test results published in patent US6737383B1, “Herbicidal oxadiazolidines” (priority 1999, dated 2004).

Legend:
[1] = system: cocklebur; assay: Test B pre/postemergence cocklebur; type: in vivo, Xanthium strumarium
Method in brief: (§1)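 Herbicidal effect was estimated by eye on a ten-point control scale after plants spent twelve to sixteen days in a greenhouse following soil or foliar treatment. Foliar sprays targeted plants at one to four leaves; all doses were formulated in a non-phytotoxic solvent with surfactant.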

[2] = system: corn; assay: Test B pre/postemergence corn; type: in vivo, Zea mays
Method in brief: as §1

[3] = system: crabgrass; assay: Test B pre/postemergence crabgrass; type: in vivo, Digitaria sanguinalis
Method in brief: as §1

[4] = system: giant foxtail; assay: Test B pre/postemergence giant foxtail; type: in vivo, Setaria faberii
Method in brief: as §1

[5] = system: morningglory; assay: Test B pre/postemergence morningglory; type: in vivo, Ipomoea hederacea
Method in brief: as §1

[6] = system: pigweed; assay: Test B pre/postemergence pigweed; type: in vivo, Amaranthus retroflexus
Method in brief: as §1

[7] = system: rape; assay: Test B pre/postemergence rape; type: in vivo, Brassica napus
Method in brief: as §1

[8] = system: soybean; assay: Test B pre/postemergence soybean; type: in vivo, Glycine max
Method in brief: as §1

[9] = system: sugar beet; assay: Test B pre/postemergence sugar beet; type: in vivo, Beta vulgaris
Method in brief: as §1

[10] = system: velvetleaf; assay: Test B pre/postemergence velvetleaf; type: in vivo, Abutilon theophrasti
Method in brief: as §1

[11] = system: wheat; assay: Test B pre/postemergence wheat; type: in vivo, Triticum aestivum
Method in brief: as §1

[12] = system: wild oat; assay: Test B pre/postemergence wild oat; type: in vivo, Avena fatua
Method in brief: as §1

[13] = system: purple nutsedge; assay: Test B pre/postemergence purple nutsedge; type: in vivo, Cyperus rotundus
Method in brief: as §1

[14] = system: rice; assay: Test B flood test rice; type: in vivo, Oryza sativa
Method in brief: (§2)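 Flood test on plants grown to the 2-leaf stage; treated plants kept in greenhouse twelve to sixteen days, then visually rated against controls on a 0 (no effect) to 10 (complete control) scale.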

[15] = system: smallflower flatsedge; assay: Test B flood test smallflower flatsedge; type: in vivo, Cyperus difformis
Method in brief: as §2

[16] = system: duck salad; assay: Test B flood test duck salad; type: in vivo, Heteranthera limosa
Method in brief: as §2

[17] = Preemergence, Rate 62 g/ha, scale of 0 to 10 where 0 is no effect and 10 is complete control
[18] = Preemergence, Rate 250 g/ha, scale of 0 to 10 where 0 is no effect and 10 is complete control
[19] = Preemergence, Rate 500 g/ha, scale of 0 to 10 where 0 is no effect and 10 is complete control
[20] = Rate 62 g/ha, Postemergence, scale of 0 to 10 where 0 is no effect and 10 is complete control
[21] = Rate 125 g/ha, Postemergence, scale of 0 to 10 where 0 is no effect and 10 is complete control
[22] = Rate 125 g/ha, Preemergence, scale of 0 to 10 where 0 is no effect and 10 is complete control
[23] = Rate 250 g/ha, Postemergence, scale of 0 to 10 where 0 is no effect and 10 is complete control
[24] = Rate 500 g/ha, Postemergence, scale 0 to 10, 0 no effect, 10 complete control
[25] = Pre-emergence, Rate 1000 g/ha, scale 0 to 10 (0 no effect, 10 complete control)
[26] = Rate 62 g/ha, headed Pre-emergence (flood test species), scale 0 to 10 (0 no effect, 10 complete control)
[27] = Rate 125 g/ha, Pre-emergence, flood test species, scale 0 to 10 where 0 is no effect and 10 is complete control
[28] = Rate 250 g/ha, Pre-emergence, flood-test species, scale 0 to 10, 0 is no effect, 10 is complete control
[29] = Rate 500 g/ha, Pre-emergence, flood test species, scale 0 to 10 (0 no effect, 10 complete control)
[30] = Rate 2000 g/ha, Pre-emergence (as headed), scale 0 to 10

CCN(C(=O)n1oc(=O)n(N(C)C)c1=O)C1CCCCC1 [Compound 274]
0: Cocklebur plant response rating [1, 17] | Cocklebur plant response rating [1, 18] | Plant response rating, Cocklebur [1, 19] | Cocklebur plant response rating [1, 20] | Cocklebur plant response rating [1, 21] | Cocklebur plant response rating [1, 22] | Plant response rating, Cocklebur [1, 23] | Cocklebur plant response rating [1, 24] | Corn plant response rating [2, 17] | Corn plant response rating [2, 18] | Plant response rating, Corn [2, 19] | Corn plant response rating [2, 20] | Corn plant response rating [2, 21] | Corn plant response rating [2, 22] | Plant response rating, Corn [2, 23] | Corn plant response rating [2, 24] | Crabgrass plant response rating [3, 17] | Crabgrass plant response rating [3, 21] | Crabgrass plant response rating [3, 22] | Plant response rating, Crabgrass [3, 23] | Crabgrass plant response rating [3, 24] | Giant foxtail plant response rating [4, 17] | Giant foxtail plant response rating [4, 21] | Plant response rating, Giant foxtail [4, 23] | Giant foxtail plant response rating [4, 24] | Morningglory plant response rating [5, 17] | Morningglory plant response rating [5, 18] | Plant response rating, Morningglory [5, 19] | Morningglory plant response rating [5, 21] | Morningglory plant response rating [5, 22] | Plant response rating, Morningglory [5, 23] | Morningglory plant response rating [5, 24] | Redroot pigweed plant response rating [6, 17] | Redroot pigweed plant response rating [6, 18] | Plant response rating, Redroot pigweed [6, 19] | Redroot pigweed plant response rating [6, 21] | Redroot pigweed plant response rating [6, 22] | Rape plant response rating [7, 17] | Rape plant response rating [7, 18] | Plant response rating, Rape [7, 19] | Rape plant response rating [7, 21] | Rape plant response rating [7, 22] | Plant response rating, Rape [7, 23] | Rape plant response rating [7, 24] | Soybean plant response rating [8, 17] | Soybean plant response rating [8, 18] | Plant response rating, Soybean [8, 19] | Soybean plant response rating [8, 22] | Sugarbeets plant response rating [9, 17] | Sugarbeets plant response rating [9, 18] | Plant response rating, Sugarbeets [9, 19] | Sugarbeets plant response rating [9, 21] | Sugarbeets plant response rating [9, 22] | Plant response rating, Sugarbeets [9, 23] | Velvetleaf plant response rating [10, 17] | Velvetleaf plant response rating [10, 18] | Plant response rating, Velvetleaf [10, 19] | Velvetleaf plant response rating [10, 21] | Velvetleaf plant response rating [10, 22] | Plant response rating, Velvetleaf [10, 23] | Velvetleaf plant response rating [10, 24] | Wheat plant response rating [11, 17] | Wheat plant response rating [11, 18] | Plant response rating, Wheat [11, 19] | Wheat plant response rating [11, 21] | Wheat plant response rating [11, 22] | Plant response rating, Wheat [11, 23] | Wheat plant response rating [11, 24] | Wild oats plant response rating [12, 17] | Wild oats plant response rating [12, 18] | Plant response rating, Wild oats [12, 19] | Wild oats plant response rating [12, 21] | Plant response rating, Wild oats [12, 23] | Wild oats plant response rating [12, 24] | Nutsedge plant response rating [13, 17] | Nutsedge plant response rating [13, 18] | Plant response rating, Nutsedge [13, 19] | Nutsedge plant response rating [13, 21] | Nutsedge plant response rating [13, 22] | Plant response rating, Nutsedge [13, 23] | Nutsedge plant response rating [13, 24] | Rice plant response rating [14, 25] | Rice plant response rating [14, 26] | Rice plant response rating [14, 27] | Rice plant response rating [14, 28] | Rice plant response rating [14, 29] | Rice plant response rating [14, 30] | S. Flatsedge plant response rating [15, 25] | S. Flatsedge plant response rating [15, 26] | S. Flatsedge plant response rating [15, 27] | S. Flatsedge plant response rating [15, 28] | S. Flatsedge plant response rating [15, 29] | S. Flatsedge plant response rating [15, 30] | Ducksalad plant response rating [16, 25] | Ducksalad plant response rating [16, 26] | Ducksalad plant response rating [16, 27] | Ducksalad plant response rating [16, 28] | Ducksalad plant response rating [16, 29] | Ducksalad plant response rating [16, 30]
5: Plant response rating, Crabgrass [3, 19] | Plant response rating, Soybean [8, 23] | Soybean plant response rating [8, 24]
6: Giant foxtail plant response rating [4, 18]
9: Plant response rating, Giant foxtail [4, 19]
1: Crabgrass plant response rating [3, 18] | Plant response rating, Redroot pigweed [6, 23] | Redroot pigweed plant response rating [6, 24] | Sugarbeets plant response rating [9, 24]
3: Giant foxtail plant response rating [4, 22] | Soybean plant response rating [8, 21]
